Test results reported in patent publication US20260022143A1, “Cyclic Peptide Inhibitors of IL-23” (JANSSEN PHARMACEUTICA NV, priority 2022, published 2026).
Starred links: 1 amine or outer side, 2 acyl side, 3 side chain; linkers in the order of their positions; H or OH if unused. Positions of bridges follow the written chain, without caps; N, C: chain ends. Non-standard residues stand in square brackets, D forms with d. Residues, ends and D or L forms follow the SMILES beside them. *: point of attachment. X41 = C[N+]1(CCCCCCCc2cn(-c3ccc(C[C@H](N[*:1])C(=O)[*:2])cc3)nn2)CCOCC1; Me3N+(CH2)2O(CH2)2O(CH2)2CO = C[N+](C)(C)CCOCCOCCC(=O)*; CH2CH2OCH2CH2OCH2CH2NMe3+ = C[N+](C)(C)CCOCCOCC*; Trp(7-Me) = Cc1cccc2c(C[C@H](N)C(=O)O)c[nH]c12; d(hLys(Me3)) = C[N+](C)(C)CCCCC[C@@H](N)C(=O)O; Decanoyl(3,6,9-trioxa) = COCCOCCOCC(=O)*; X1 = CN(CC[C@H](N[*:1])C(=O)[*:2])[*:3]; 2Nal = N[C@@H](Cc1ccc2ccccc2c1)C(=O)O; AEF = NCCOc1ccc(C[C@H](N)C(=O)O)cc1; X24 = C[N+](C)(CCN[*:1])CC(=O)[*:2]; 3Pal = N[C@@H](Cc1cccnc1)C(=O)O; Lys(Me) = CNCCCC[C@H](N)C(=O)O; Agb = N=C(N)NCC[C@H](N)C(=O)O; X5 = C[N+](C)(C)CCOCCOCC(=O)*; Pen = CC(C)(S)[C@H](N)C(=O)O; X57 = C[N+]1(C)CCC(CC*)CC1; Thp = NC1(C(=O)O)CCOCC1; X3 = C[N+](C)(C)CCCCC*; Sar = CNCC(=O)O

Legend:
IL-23R = molecular target: T1, IL-23R (Homo sapiens, UniProt Q5VWK5); assay: IL23R Reporter Assay; format: cell-based; conditions: HEK293 cells containing IL-23R, IL-12RP1 and STAT-inducible firefly luciferase reporter; 10 ng/mL IL-23 (EC90); 5 h at 37° C.; read-out: IL23R Reporter Assay
T1 construct: host or cells: HEK293
T1 sequence (Q5VWK5 24-629): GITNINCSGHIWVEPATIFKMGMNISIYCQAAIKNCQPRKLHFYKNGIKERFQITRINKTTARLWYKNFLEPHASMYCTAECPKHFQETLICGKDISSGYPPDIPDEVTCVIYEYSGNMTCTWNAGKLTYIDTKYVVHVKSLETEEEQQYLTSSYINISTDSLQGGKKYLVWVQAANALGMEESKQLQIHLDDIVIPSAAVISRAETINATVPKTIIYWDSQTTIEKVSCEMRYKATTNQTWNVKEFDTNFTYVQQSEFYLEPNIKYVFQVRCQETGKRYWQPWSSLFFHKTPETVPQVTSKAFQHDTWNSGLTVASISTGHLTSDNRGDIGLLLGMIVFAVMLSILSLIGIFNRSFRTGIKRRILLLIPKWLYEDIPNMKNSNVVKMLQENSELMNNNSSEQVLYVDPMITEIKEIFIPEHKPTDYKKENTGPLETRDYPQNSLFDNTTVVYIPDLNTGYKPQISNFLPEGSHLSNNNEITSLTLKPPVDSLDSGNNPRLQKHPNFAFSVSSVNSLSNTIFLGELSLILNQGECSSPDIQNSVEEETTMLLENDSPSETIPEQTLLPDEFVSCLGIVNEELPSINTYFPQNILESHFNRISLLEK

[1] = Exposed Polar Surface Area (EPSA); format: physicochemical; conditions: SFC on Chirex 3014 column; sample 1 mM DMSO stock; read-out: EPSA
Outline: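 Compounds, as 1 mM DMSO stock, were injected in duplicate onto an SFC Chirex 3014 column at 35 °C and eluted with a CO2/methanol (20 mM ammonium formate) gradient. EPSA values in Å^2 were derived from retention times using a linear fit to eight calibration standards, reinjected every 20 compounds.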

SMILES	IC50 (IL-23R) [nM]	EPSA [1] [A^2]
CC(=O)N(C)CCCC[C@@H]1NC(=O)[C@H](Cc2c[nH]c3c(C)cccc23)NC(=O)[C@H]([C@@H](C)O)NC(=O)[C@H](CC(=O)N(C)C)NC(=O)[C@@H](NC(=O)CCOCCOCC[N+](C)(C)C)C(C)(C)SSC(C)(C)[C@@H](C(=O)N[C@@H](Cc2ccc(OCCC3CC[N+](C)(C)CC3)cc2)C(=O)N[C@@H](Cc2ccc3ccccc3c2)C(=O)NC2(C(=O)N[C@@H](CCCCN(C)C(C)=O)C(=O)N[C@@H](CC(N)=O)C(=O)N[C@@H](Cc3cccnc3)C(=O)N(C)CC(=O)N(C)C)CCOCC2)NC1=O [compound 187, cPEG3aCO-Pen(3)-N(N(Me)2)-T-7MeW-K(NMeAc)-Pen(3)-4DMPEF-2Nal-THP-K(NMeAc)-N-3Pya-Sar-CON(Me)2] ({Me3N+(CH2)2O(CH2)2O(CH2)2CO}-[Pen]D(NMe2)T[Trp(7-Me)][Lys(Me)](Ac)[Pen]Y(X57)[2Nal][Thp][Lys(Me)](Ac)N[3Pal][Sar]-NMe2; disulfide 1-6)	86	137
CC(=O)NCCCC[C@@H]1NC(=O)[C@H](Cc2c[nH]c3c(-c4cccc(NC(C)=O)c4)cccc23)NC(=O)[C@H]([C@@H](C)O)NC(=O)[C@H](CC(N)=O)NC(=O)[C@@H](NC(=O)CCOCCOCC[N+](C)(C)C)C(C)(C)SSC(C)(C)[C@@H](C(=O)N[C@@H](Cc2ccc(OCCCCC[N+](C)(C)C)cc2)C(=O)N[C@@H](Cc2ccc3ccccc3c2)C(=O)NC2(C(=O)N[C@@H](CCCCN(C)C(C)=O)C(=O)N[C@@H](CC(N)=O)C(=O)N[C@@H](Cc3cncc(C)c3)C(=O)N(C)CC(N)=O)CCOCC2)NC1=O [compound 501, cPEG3aCO-Pen(3)-N-T-7(3NAcPh)W-K(Ac)-Pen(3)-TMAPF-2Nal-THP-K(NMeAc)-N-5MePyridinAla-Sar-CONH2]	4.6	175
CC(=O)N[C@H](CCCCC[N+](C)(C)C)C(=O)N[C@@H]1C(=O)N[C@@H](CC(=O)N(C)C)C(=O)N[C@@H]([C@@H](C)O)C(=O)N[C@@H](Cc2c[nH]c3c(C)cccc23)C(=O)N[C@@H](CCCCN(C)C(C)=O)C(=O)N[C@H](C(=O)N[C@@H](Cc2ccc(OCCCCC[N+](C)(C)C)cc2)C(=O)N[C@@H](Cc2ccc3ccccc3c2)C(=O)NC2(C(=O)N[C@@H](CCCCN(C)C(C)=O)C(=O)N[C@@H](CC(N)=O)C(=O)N[C@@H](Cc3cccnc3)C(=O)N(C)CC(=O)N(C)C)CCOCC2)C(C)(C)SSC1(C)C [compound 344, MeCO-hk(Me)3-Pen(3)-N(N(Me)2)-T-7MeW-K(NMeAc)-Pen(3)-TMAPF-2Nal-THP-K(NMeAc)-N-3Pya-Sar-CON(Me)2] (Ac-[d(hLys(Me3))][Pen]D(NMe2)T[Trp(7-Me)][Lys(Me)](Ac)[Pen]Y(X3)[2Nal][Thp][Lys(Me)](Ac)N[3Pal][Sar]-NMe2; disulfide 2-7)	6.6	158
CC(=O)N(C)CCCC[C@@H]1NC(=O)[C@H](Cc2c[nH]c3c(C)cccc23)NC(=O)[C@H]([C@@H](C)O)NC(=O)[C@H](CC(=O)N(C)C)NC(=O)[C@@H](NC(=O)CCOCCOCC[N+](C)(C)C)C(C)(C)SSC(C)(C)[C@@H](C(=O)N[C@@H](Cc2ccc(-n3cc(CCCCCCC[N+]4(C)CCOCC4)nn3)cc2)C(=O)N[C@@H](Cc2ccc3ccccc3c2)C(=O)NC2(C(=O)N[C@@H](CCCCN(C)C(C)=O)C(=O)N[C@@H](CC(N)=O)C(=O)N[C@@H](Cc3cccnc3)C(=O)N(C)CC(=O)N(C)C)CCOCC2)NC1=O [compound 479, cPEG3aCO-Pen(3)-N(N(Me)2)-T-7MeW-K(NMeAc)-Pen(3)-F(4TzIMMo7)-2Nal-THP-K(NMeAc)-N-3Pya-Sar-CON(Me)2] ({Me3N+(CH2)2O(CH2)2O(CH2)2CO}-[Pen]D(NMe2)T[Trp(7-Me)][Lys(Me)](Ac)[Pen][X41][2Nal][Thp][Lys(Me)](Ac)N[3Pal][Sar]-NMe2; disulfide 1-6)	3.4	158
CC(=O)N(C)CCCC[C@@H]1NC(=O)[C@H](Cc2c[nH]c3c(C)cccc23)NC(=O)[C@H]([C@@H](C)O)NC(=O)[C@H](CC(=O)N(C)C)NC(=O)[C@@H](NC(=O)CCOCCOCC[N+](C)(C)C)C(C)(C)SSC(C)(C)[C@@H](C(=O)N[C@@H](Cc2ccc(OCCOCCOCC[N+](C)(C)C)cc2)C(=O)N[C@@H](Cc2ccc3ccccc3c2)C(=O)NC2(C(=O)N[C@@H](Cc3c[nH]c4ccccc34)C(=O)N[C@@H](CC(N)=O)C(=O)N[C@@H](Cc3cccnc3)C(=O)N(C)CC(=O)N(C)C)CCOCC2)NC1=O [compound 470, cPEG3aCO-Pen(3)-N(N(Me)2)-T-7MeW-K(NMeAc)-Pen(3)-APEG3F-2Nal-THP-W-N-3Pya-Sar-CON(Me)2] ({Me3N+(CH2)2O(CH2)2O(CH2)2CO}-[Pen]D(NMe2)T[Trp(7-Me)][Lys(Me)](Ac)[Pen]Y(CH2CH2OCH2CH2OCH2CH2NMe3+)[2Nal][Thp]WN[3Pal][Sar]-NMe2; disulfide 1-6)	1.2	160
CC(=O)N[C@@H]1C(=O)N[C@@H](CC(=O)N(C)C)C(=O)N[C@@H]([C@@H](C)O)C(=O)N[C@@H](Cc2c[nH]c3c(C)cccc23)C(=O)N[C@@H](CCN(C)C(=O)COCCOCC[N+](C)(C)C)C(=O)N[C@H](C(=O)N[C@@H](Cc2ccc(OCCN)cc2)C(=O)N[C@@H](Cc2ccc3ccccc3c2)C(=O)NC2(C(=O)N[C@@H](CCC(=O)O)C(=O)N[C@@H](CC(N)=O)C(=O)N[C@@H](Cc3cccnc3)C(=O)N(C)CC(=O)N(C)C)CCOCC2)C(C)(C)SSC1(C)C [compound 130, MeCO-Pen(3)-N(N(Me)2)-T-7MeW-Dab(NMecPEG2a)-Pen(3)-AEF-2Nal-THP-E-N-3Pya-Sar-CON(Me)2] (Ac-[Pen]D(NMe2)T[Trp(7-Me)][X1](X5)[Pen][AEF][2Nal][Thp]EN[3Pal][Sar]-NMe2; disulfide 1-6)	3.4	164
CC(=O)N(C)CCCC[C@H](NC(=O)C1(NC(=O)[C@H](Cc2ccc3ccccc3c2)NC(=O)[C@H](Cc2ccc(OCCCCC[N+](C)(C)C)cc2)NC(=O)[C@H]2NC(=O)[C@H](C)NC(=O)[C@H](Cc3c[nH]c4c(C)cccc34)NC(=O)[C@H]([C@@H](C)O)NC(=O)[C@H](CC(=O)N(C)C)NC(=O)[C@@H](NC(=O)CCOCCOCC[N+](C)(C)C)C(C)(C)SSC2(C)C)CCOCC1)C(=O)N[C@@H](CC(N)=O)C(=O)N[C@@H](Cc1cccnc1)C(=O)N(C)CC(=O)N(C)C [compound 492, cPEG3aCO-Pen(3)-N(N(Me)2)-T-7MeW-A-Pen(3)-TMAPF-2Nal-THP-K(NMeAc)-N-3Pya-Sar-CON(Me)2] ({Me3N+(CH2)2O(CH2)2O(CH2)2CO}-[Pen]D(NMe2)T[Trp(7-Me)]A[Pen]Y(X3)[2Nal][Thp][Lys(Me)](Ac)N[3Pal][Sar]-NMe2; disulfide 1-6)	6.4	165
CC(=O)N(C)CCCC[C@@H]1NC(=O)[C@H](Cc2c[nH]c3c(C)cccc23)NC(=O)[C@H]([C@@H](C)O)NC(=O)[C@H](CCNC(=N)N)NC(=O)[C@@H](NC(=O)CCOCCOCC[N+](C)(C)C)C(C)(C)SSC(C)(C)[C@@H](C(=O)N[C@@H](Cc2ccc(OCCOCCOCC[N+](C)(C)C)cc2)C(=O)N[C@@H](Cc2ccc3ccccc3c2)C(=O)NC2(C(=O)N[C@@H](CCCCN(C)C(C)=O)C(=O)N[C@@H](CC(N)=O)C(=O)N[C@@H](Cc3cccnc3)C(=O)N(C)CC(=O)N(C)C)CCOCC2)NC1=O [compound 411, cPEG3aCO-Pen(3)-Gab-T-7MeW-K(NMeAc)-Pen(3)-APEG3F-2Nal-THP-K(NMeAc)-N-3Pya-Sar-CON(Me)2] ({Me3N+(CH2)2O(CH2)2O(CH2)2CO}-[Pen][Agb]T[Trp(7-Me)][Lys(Me)](Ac)[Pen]Y(CH2CH2OCH2CH2OCH2CH2NMe3+)[2Nal][Thp][Lys(Me)](Ac)N[3Pal][Sar]-NMe2; disulfide 1-6 (inferred))	2.1	155
COCCOCCOCC(=O)NCC[N+](C)(C)CC(=O)N[C@@H]1C(=O)N[C@@H](CC(=O)N(C)C)C(=O)N[C@@H]([C@@H](C)O)C(=O)N[C@@H](Cc2c[nH]c3c(C)cccc23)C(=O)N[C@@H](CCCCN(C)C(C)=O)C(=O)N[C@H](C(=O)N[C@@H](Cc2ccc(OCCN)cc2)C(=O)N[C@@H](Cc2ccc3ccccc3c2)C(=O)NC2(C(=O)N[C@@H](CCC(=O)N(C)C)C(=O)N[C@@H](CC(N)=O)C(=O)N[C@@H](Cc3cccnc3)C(=O)N(C)CC(N)=O)CCOCC2)C(C)(C)SSC1(C)C [compound 152, mPEG3CO-SP6-Pen(3)-N(N(Me)2)-T-7MeW-K(NMeAc)-Pen(3)-AEF-2Nal-THP-QNMe2-N-3Pya-Sar-CONH2] ({Decanoyl(3,6,9-trioxa)}-[X24][Pen]D(NMe2)T[Trp(7-Me)][Lys(Me)](Ac)[Pen][AEF][2Nal][Thp]E(NMe2)N[3Pal][Sar]-NH2; disulfide 2-7)	1.6	155
